Source: patent US7358221B1, “Metathesis depolymerizable surfactants” (Sandia Corporation, priority 2004, dated 2008)

Legend:
[1] = Critical micelle concentration by dynamic surface tension (surface tensiometry); format: physicochemical; settings: equilibrium mode, aqueous solution
Text: FIGS. 5 and 6 also show the response of dynamic surface tension values (operated in equilibrium mode) measured as a function of concentration for surfactants 4 and the anionic salt 7 in aqueous solution. The physicochemical properties of a surfactant change to a significant degree after reaching the cmc due to the presence of micelles and a surfactant-saturated air-water interface.
A comprehensive listing of all the physicochemical properties calculated for these surfactants is shown above in Table 1.
The surfactant concentration at the intersection of the two lines which are least-squares fit to (1) the rapidly changing surface tension readings and (2) the low, relatively constant surface tension readings at high surfactant concentrations defines the cmc by this method. The cmc's calculated from the surface tension data of surfactants 4 and 7 are 1.9 mmol and 5.9 mmol, respectively. The higher values for cmc as determined by dynamic surface tension compared to Orange OT dye solubilization can be attributed to static (dye solubilization) vs. dynamic (surface tension) measurements of the microenvironment.

[2] = Ring-closing metathesis degradation followed by 1H NMR in chloroform; format: physicochemical; settings: 2 mol. % RuCl2[C21H26N2][CHC6H5]P(C6H11)3 (2nd generation Grubbs catalyst), 25° C.
Text: Decomposition of these surfactant molecules takes place by the action of a ring closing metathesis-active transition metal catalyst on the tail portion of the surfactant, as illustrated in FIG. 8. It is believed that initiation of the decomposition reaction produces styrene. Intramolecular reaction of double bonds further up the tail group produces cyclohexene faster than cross-metathesis with another surfactant.
Cyclohexene formation is clearly evident in the solution within five minutes of adding the catalyst, as evidenced by the appearance of broad singlets at δ=1.62 and 1.97 ppm and a characteristic singlet at δ=5.67 ppm.
^1H NMR also indicates the presence of the former head group as 7-(N,N,N-trimethylammonium)hept-1-enyl iodide (unchanged chemical shift at δ=3.48 ppm from starting surfactant 4) as well as the cross-coupled product, cis/trans-1,12-bis(trimethylammonium)dodec-6-enyl diiodide (equivalent methyls at δ=3.43 ppm).
Within 5 minutes after the introduction of catalyst, cyclohexene was clearly present in solution as evidenced by the appearance of broad singlets at δ=1.62 and 1.97 ppm and a characteristic singlet at δ=5.67 ppm (see FIG. 10).
Additionally, peaks clearly assignable to allyl malonic acid (δ=5.12-5.22 ppm, δ=3.57 ppm, δ=2.68 ppm) were present, by comparison with an authentic sample. […]

time to nearly complete decomposition [2] [min] | Compound | cmc as determined by surface tensiometry [1] [mmol]
 | dipotassium heneicosa-2,8,14,20-tetraenyl malonate [Surfactant 7] | 5.9
≤ 60 | C=CCCCCC=CCCCCC=CCCCCC[N+](C)(C)C.[I-] [Surfactant 4, trimethylnonadeca-6,12,18-trienylammonium iodide] | 1.9
